# Experimental data from patent US11203574B2 (BioCryst Pharmaceuticals, Inc., priority 2014, dated 2021).
# Molecular target: human plasma kallikrein (Homo sapiens (Human), UniProt P03952)
# Assay: Plasma kallikrein activity assay (chromogenic substrate S2302)
# Assay type: biochemical
# Details: 2 nM kallikrein, 80 μM S2302, 30° C., pH 7.8; Ki by Cheng-Prusoff equation; values given as ranges; read-out: Ki
# Method: Plasma Kallikrein Activity Assay.
# The effect of compounds of the invention on human plasma kallikrein activity was determined using the chromogenic substrates (DiaPharma Group, Inc., West Chester, Ohio, USA). In these experiments, 2 nM kallikrein (Enzyme Research Laboratories, South Bend, Ind., USA) was incubated with 80 μM S2302 (H-D-Pro-Phe-Arg-p-nitroaniline) in the absence or presence of increasing concentrations of compounds of the invention in a final volume of 200 μL Tris-HCl buffer (200 mM NaCl; mM CaCl2; 50 mM Tris-HCl, pH 7.8).
# Data were analyzed using SigmaPlot software (Systat Software, Inc., San Jose, Calif., USA) (Four Parameter Logistic Curve).
# Sequence of human plasma kallikrein (P03952 whole entry, looked up): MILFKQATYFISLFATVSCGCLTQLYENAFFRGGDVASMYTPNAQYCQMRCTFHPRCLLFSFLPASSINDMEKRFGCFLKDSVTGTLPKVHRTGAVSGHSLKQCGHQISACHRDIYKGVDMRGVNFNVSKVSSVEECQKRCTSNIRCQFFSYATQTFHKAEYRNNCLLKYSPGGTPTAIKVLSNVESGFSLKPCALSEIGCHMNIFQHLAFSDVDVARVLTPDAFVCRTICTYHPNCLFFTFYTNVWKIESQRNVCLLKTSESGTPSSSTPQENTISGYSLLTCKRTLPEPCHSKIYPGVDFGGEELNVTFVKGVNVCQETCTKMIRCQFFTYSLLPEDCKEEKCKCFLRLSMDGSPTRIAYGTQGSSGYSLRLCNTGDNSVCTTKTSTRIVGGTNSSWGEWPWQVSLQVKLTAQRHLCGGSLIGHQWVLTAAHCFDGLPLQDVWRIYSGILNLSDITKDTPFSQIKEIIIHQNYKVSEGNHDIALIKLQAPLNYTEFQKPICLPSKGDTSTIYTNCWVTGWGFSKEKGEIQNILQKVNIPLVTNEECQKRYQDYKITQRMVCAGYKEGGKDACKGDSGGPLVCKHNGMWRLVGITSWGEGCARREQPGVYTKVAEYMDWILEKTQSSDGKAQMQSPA
# Sequence of human plasma kallikrein (P03952 whole entry partner, looked up): as the sequence (P03952 whole entry, looked up) above
row,SMILES,Ki [nM]
1,"NCc1cccc(-n2nc(C(F)(F)F)cc2C(=O)Nc2cc(C(CCC3CC3)N3C(=O)CCC3=O)ccc2F)c1 (stereo not shown) [260b, 1-(3-(aminomethyl)phenyl)-N-(5-(3-cyclopropyl-1-(2,5-dioxopyrrolidin-1-yl)propyl)-2-fluorophenyl)-3-(trifluoromethyl)-1H-pyrazole-5-carboxamide]",0.1 to 50
2,"NCc1cccc(-n2nc(C(F)(F)F)cc2C(=O)Nc2cccc(C(O)(CCC3CC3)c3ccccc3)c2)c1 (racemic) [46g, 1-(3-(aminomethyl)phenyl)-N-(3-(3-cyclopropyl-1-hydroxy-1-phenylpropyl)phenyl)-3-(trifluoromethyl)-1H-pyrazole-5-carboxamide]",0.1 to 50
3,"COC(CCC1CC1)(c1cccnc1)c1cccc(NC(=O)c2cc(C(F)(F)F)nn2-c2cccc(CN)c2)c1 (stereo not shown) [156c, 1-(3-(aminomethyl)phenyl)-N-(3-(3-cyclopropyl-1-methoxy-1-(pyridin-3-yl)propyl)phenyl)-3-(trifluoromethyl)-1H-pyrazole-5-carboxamide]",0.1 to 50
4,"COc1ccc(C(NCC2CC2)c2cccc(NC(=O)c3cc(C(F)(F)F)nn3-c3cccc(CN)c3)c2)c2ccccc12 (stereo not shown) [154e, 1-(3-(aminomethyl)phenyl)-N-(3-((cyclopropylmethylamino)(4-methoxynaphthalen-1-yl)methyl)phenyl)-3-(trifluoromethyl)-1H-pyrazole-5-carboxamide]",0.1 to 50
5,"CN1CCc2c(ccc(NC(=O)c3cc(C(F)(F)F)nn3-c3cccc(CN)c3)c2F)C1 [164e, 1-(3-(aminomethyl)phenyl)-N-(5-fluoro-2-methyl-1,2,3,4-tetrahydroisoquinolin-6-yl)-3-(trifluoromethyl)-1H-pyrazole-5-carboxamide]",0.1 to 50
6,"NCc1cccc(-n2nc(C(F)(F)F)cc2C(=O)Nc2cc(C(NCC3CC3)c3ccc(C(N)=O)cc3)ccc2F)c1 (stereo not shown) [153b, 1-(3-(aminomethyl)phenyl)-N-(5-((4-carbamoylphenyl)(cyclopropylmethyl-amino)methyl)-2-fluorophenyl)-3-(trifluoromethyl)-1H-pyrazole-5-carboxamide]",0.1 to 50
7,"N#Cc1cccc(C(NCC2CC2)c2ccc(F)c(NC(=O)c3cc(C(F)(F)F)nn3-c3cccc(C(=N)N)c3)c2)c1 (single isomer, unassigned; (+)) [236h, (+)-1-(3-carbamimidoylphenyl)-N-(5-((3-cyanophenyl)(cyclopropylmethylamino)methyl)-2-fluorophenyl)-3-(trifluoromethyl)-1H-pyrazole-5-carboxamide]",0.1 to 50
8,"CCOC(c1ccccc1)c1ccc(F)c(NC(=O)c2cc(C(F)(F)F)nn2-c2cccc(CN)c2)c1 (stereo not shown) [25b, 1-(3-(aminomethyl)phenyl)-N-(5-(ethoxy(phenyl)methyl)-2-fluorophenyl)-3-(trifluoromethyl)-1H-pyrazole-5-carboxamide]",50 to 100
9,"NCc1cccc(-n2nc(C(F)(F)F)cc2C(=O)Nc2cc(C(N)(CCC3CC3)c3cccc(C(N)=O)c3)ccc2F)c1 (single isomer, unassigned; (-)) [225a, (−)-N-(5-(1-amino-1-(3-carbamoylphenyl)-3-cyclopropylpropyl)-2-fluorophenyl)-1-(3-(aminomethyl)phenyl)-3-(trifluoromethyl)-1H-pyrazole-5-carboxamide]",0.1 to 50
10,"COc1ccc2cc(C(NCC3CC3)c3cccc(NC(=O)c4cc(C(F)(F)F)nn4-c4cccc(CN)c4)c3)ccc2c1 (stereo not shown) [134f, 1-(3-(aminomethyl)phenyl)-N-(3-((cyclopropylmethylamino)(6-methoxynaphthalen-2-yl)methyl)phenyl)-3-(trifluoromethyl)-1H-pyrazole-5-carboxamide]",0.1 to 50
11,"NCc1cccc(-n2nc(C(F)(F)F)cc2C(=O)Nc2cccc(C(NCC3CC3)c3ccccc3OCc3ccccc3)c2)c1 (stereo not shown) [106a, 1-(3-(aminomethyl)phenyl)-N-(3-((2-(benzyloxy)phenyl)(cyclopropylmethylamino)methyl)phenyl)-3-(trifluoromethyl)-1H-pyrazole-5-carboxamide]",0.1 to 50
12,"NCc1cccc(-n2nc(C(F)(F)F)cc2C(=O)Nc2cccc(C(NCC3CC3)c3ccccn3)c2)c1 (stereo not shown) [83c, 1-(3-(aminomethyl)phenyl)-N-(3-((cyclopropylmethylamino)(pyridin-2-yl)methyl)phenyl)-3-(trifluoromethyl)-1H-pyrazole-5-carboxamide]",0.1 to 50
13,"NCc1cccc(-n2nc(C(F)(F)F)cc2C(=O)Nc2cccc(C(O)(CCC3CC3)c3cccnc3)c2)c1 (single isomer, unassigned; (+)) [47h, (+)-1-(3-(aminomethyl)phenyl)-N-(3-(3-cyclopropyl-1-hydroxy-1-(pyridin-3-yl)propyl)phenyl)-3-(trifluoromethyl)-1H-pyrazole-5-carboxamide]",0.1 to 50
14,"NCc1cccc(-n2nc(C(F)(F)F)cc2C(=O)Nc2cccc(C(NCC3CC3)c3ccc(F)cc3F)c2)c1 (stereo not shown) [196f, 1-(3-(aminomethyl)phenyl)-N-(3-(((cyclopropylmethyl)amino)(2,4-difluorophenyl)methyl)phenyl)-3-(trifluoromethyl)-1H-pyrazole-5-carboxamide]",0.1 to 50
15,"CCCN(c1ccccc1)c1cccc(NC(=O)c2cc(C(F)(F)F)nn2-c2cccc(CN)c2)c1F [29e, 1-(3-(aminomethyl)phenyl)-N-(2-fluoro-3-(phenyl(propyl)amino)phenyl)-3-(trifluoromethyl)-1H-pyrazole-5-carboxamide]",0.1 to 50
16,"NCc1cccc(-n2nc(C(F)(F)F)cc2C(=O)Nc2cccc(C(OCC3CC3)c3cccc(N)c3)c2)c1 (single isomer, unassigned; (-)) [64a, (−)-1-(3-(aminomethyl)phenyl)-N-(3-((3-aminophenyl)(cyclopropyl-methoxy)methyl)phenyl)-3-(trifluoromethyl)-1H-pyrazole-5-carboxamide]",0.1 to 50
17,"NCc1cccc(-n2nc(C(F)(F)F)cc2C(=O)Nc2cc(C(NCC3CC3)c3ccncc3)ccc2F)c1 (stereo not shown) [132f, 1-(3-(aminomethyl)phenyl)-N-(5-(((cyclopropylmethyl)amino)(pyridin-4-yl)methyl)-2-fluorophenyl)-3-(trifluoromethyl)-1H-pyrazole-5-carboxamide]",0.1 to 50
18,"NCc1cccc(-n2nc(C(F)(F)F)cc2C(=O)Nc2cccc(C(NC3CCC3)c3ccccc3)c2)c1 (stereo not shown) [188b, 1-(3-(Aminomethyl)phenyl)-N-(3-((cyclobutylamino)(phenyl)methyl)phenyl)-3-(trifluoromethyl)-1H-pyrazole-5-carboxamide]",0.1 to 50
19,"Cc1ccccc1C(NCC1CC1)c1cccc(NC(=O)c2cc(C(F)(F)F)nn2-c2cccc(CN)c2)c1 (stereo not shown) [193f, 1-(3-(Aminomethyl)phenyl)-N-(3-(((cyclopropylmethyl)amino)(o-tolyl)methyl)phenyl)-3-(trifluoromethyl)-1H-pyrazole-5-carboxamide]",0.1 to 50
20,"Cc1cccc(C(NCC2CC2)c2cccc(NC(=O)c3cc(C(F)(F)F)nn3-c3cccc(CN)c3)c2)c1 (stereo not shown) [110f, 1-(3-(Aminomethyl)phenyl)-N-(3-((cyclopropylmethylamino)(m-tolyl)methyl)phenyl)-3-(trifluoromethyl)-1H-pyrazole-5-carboxamide]",0.1 to 50
21,"CN(C)c1ccc(C(NCC2CC2)c2cccc(NC(=O)c3cc(C(F)(F)F)nn3-c3cccc(CN)c3)c2)c2ccccc12 (stereo not shown) [126g, 2-(3-Aminomethyl-phenyl)-5-trifluoromethyl-2H-pyrazole-3-carboxylic acid {3-[(cyclopropylmethyl-amino)-(4-dimethylamino-naphthalen-1-yl)-methyl]-phenyl}-amide]",0.1 to 50
22,"CCC(=O)NC(CCC1CC1)(c1cccnc1)c1ccc(F)c(NC(=O)c2cc(C(F)(F)F)nn2-c2cccc(CN)c2)c1 (single isomer, unassigned; (-)) [244i, (−)-1-(3-(aminomethyl)phenyl)-N-(5-(3-cyclopropyl-1-propionamido-1-(pyridin-3-yl)propyl)-2-fluorophenyl)-3-(trifluoromethyl)-1H-pyrazole-5-carboxamide]",0.1 to 50
23,"N#Cc1cccc(C(N)(CCC2CC2)c2cccc(NC(=O)c3cc(C(F)(F)F)nn3-c3cccc(CN)c3)c2)c1 (single isomer, unassigned; (+)) [219c, (+)-N-(3-(1-amino-1-(3-cyanophenyl)-3-cyclopropylpropyl)phenyl)-1-(3-(aminomethyl)phenyl)-3-(trifluoromethyl)-1H-pyrazole-5-carboxamide]",0.1 to 50
24,"NCc1cccc(-n2nc(C(F)(F)F)cc2C(=O)Nc2cccc(C(NCC3CC3)c3cccc(O)c3O)c2)c1 (stereo not shown) [150f, 1-(3-(aminomethyl)phenyl)-N-(3-((cyclopropylmethylamino)(2,3-dihydroxyphenyl)methyl)phenyl)-3-(trifluoromethyl)-1H-pyrazole-5-carboxamide]",0.1 to 50
25,"CCOC(c1ccccc1)c1cccc(NC(=O)c2cc(C(F)(F)F)nn2-c2cccc(CN)c2)c1 (stereo not shown) [18g, 1-(3-(aminomethyl)phenyl)-N-(3-(ethoxy(phenyl)methyl)phenyl)-3-(trifluoromethyl)-1H-pyrazole-5-carboxamide]",50 to 100
26,"NCc1cccc(-n2nc(C(F)(F)F)cc2C(=O)Nc2cccc(C(NCC3CC3)c3ccc(-c4ccccc4)cc3)c2)c1 (stereo not shown) [133g, 1-(3-(aminomethyl)phenyl)-N-(3-(biphenyl-4-yl(cyclopropylmethylamino)methyl)phenyl)-3-(trifluoromethyl)-1H-pyrazole-5-carboxamide]",0.1 to 50
27,"NCc1cccc(-n2nc(C(F)(F)F)cc2C(=O)Nc2cccc(C(OCC3CC3)c3ccccn3)c2)c1 (racemic) [43f, 1-(3-(aminomethyl)phenyl)-N-(3-((cyclopropylmethoxy)(pyridin-2-yl)methyl)-phenyl)-3-(trifluoromethyl)-1H-pyrazole-5-carboxamide]",0.1 to 50

# Same assay, conditions: Ki, 2 nM kallikrein, 80 μM S2302, 30° C., pH 7.8; Ki by Cheng-Prusoff equation; values given as ranges
row,SMILES,Ki [nM]
1,"NCc1cccc(-n2nc(C(F)(F)F)cc2C(=O)Nc2cccc(C(OCCC3CC3)c3ccccc3)c2)c1 (stereo not shown) [74a, 1-(3-(aminomethyl)phenyl)-N-(3-((2-cyclopropylethoxy)(phenyl)methyl)phenyl)-3-(trifluoromethyl)-1H-pyrazole-5-carboxamide]",0.1 to 50
